Source: patent US20220016241A1, “COMPOSITIONS AND METHODS FOR REDUCING ANTIGEN-SPECIFIC IMMUNOGENICITY” (The Research Foundation for The State University of New York, priority 2013, published 2022)

Assays:
[1] = test system: anti-GAA peptide antibody titers; assay: Effect of OPLS and PS-liposomes on GAA peptide immunogenicity; format: in vivo, mouse; settings: 10 μg peptide, 4 weekly s.c.; OPLS 5 mg or PS/PC 1:10,000 protein:lipid
Experimental: Materials and Methods. GAA peptide Source: This GAA peptide was produced by American Peptide Company (Sunnyvale, Calif.). They produced for us a peptide […] containing amino acids 339-352 of the full length GAA sequence, YIFLGPEPKSVVQ (SEQ ID NO:1). OPLS Source: Sigma-Aldrich (St. Louis, Mo.) Peptide concentration dose: 10 μg/injection. Free GAA peptide (n=4), PS-GAA peptide (n=4), and OPLS-GAA peptide (n=5). Each mouse received 4 weekly subcutaneous (s.c.) injections near the base of the tail of 100 μl/injection of their treatment. Two weeks after the last injection, a retro-orbital blood sample was taken from each mouse. Samples were stored at −80° C. until analysis. These samples were then analyzed for anti-GAA peptide Ab titers. Anti-GAA antibody titers were measured as follows: ELISA plate (maxisorp, NUNC) was coated with 100 μl of 10 μg/ml of sterile rhGAA in sodium carbonate-bicarbonate buffer pH=9.6. The plate was incubated overnight at 4° C. The plate was washed six times with PBS containing 0.05% Tween 20 (PBS-T, 250 μl/well) using an automated plate washer. […] The reaction was stopped with 2 N sulfuric acid and read immediately at 450 nm using a micro-plate reader. The titer values are quantitated using a statistical endpoint method as described by Frey et al. Control plasma samples were run on each plate. […]

[2] = test system: anti-Humira antibody titers; assay: Effect of OPLS on immunogenicity of adalimumab; format: in vivo, mice; settings: 5 mg OPLS with Humira s.c., 4 weekly injections, 2 weeks washout
Experimental: Methods: n=8 animals/group were immunized with 4 weekly s.c. injections of 10 μg of adalimumab in 100 μl of either sterile TRIS for the free group or in 5 mg OPLS in sterile TRIS for the OPLS-Adalimumab group. After a 2 week rest period, a blood sample from the saphenous vein was collected for titer analysis. Titer values were obtained by classical sandwitch ELISA. Briefly, Nunc-Maxisorb 96-well plates were coated overnight at 4° C. with 50 μl/well of 2.5 μg/ml Humira. Plates were then washed and blocked with 1% bovine serum albumin (blocking buffer). 50 μl/well of various dilutions of the sample were added to the plate and incubated at room temperature for 2 h. Plasma samples from animals exposes to a sham treatment (buffer only) served as controls. The plates were then washed and incubated with 50 μl of goat anti-mouse anti-body-HRP conjugate at a 1:50000 dilution in blocking buffer at room temperature for 1 h. Color was developed for 20 min with 100 μl of TMB solution. 100 μl of 2 N H2SO4 was used to stop the reaction. Optical density at […] was measured using a plate reader. Non-responders were given the value of the plate specific factor for uniformity.

[3] = molecular target: T1, GAA (Homo sapiens, UniProt P10253); assay: Binding of OPLS to GAA by fluorescence spectroscopy; settings: spectroscopic titration
T1 construct: Full length recombinant rhGAA was produced in Human Kidney Embryo Cells for our use by Creative Biomart; purchased Creative Biomart (Shirley, N.Y.); host or cells: Human Kidney Embryo Cells
Experimental: The binding of OPLS to several therapeutic proteins was evaluated using fluorescence spectroscopy (FIG. 2).

[4] = test system: TNF-α; assay: Cytokine profile of BMDCs in vitro, TNF-α ELISA; format: cell-based, HA mice; settings: 1 μg/ml FVIII with 50 mM OPLS, 48 hours, n=4
Experimental: Generation of bone marrow derived dendritic cells (BMDC): Bone marrow was isolated from 6 to 8 week old naïve HA. Briefly, bone marrow was cultured in RPMI media supplemented with […] (low endotoxin), 2-mercaptoethanol, Pen/Strep and […] GMCSF. Media was changed on days 3, 6 and 8 of culture and DCs were used on day 9. BMDC are then harvested and used as needed. To verify the differentiation of bone marrow cells into DCs, CD11c surface expression was confirmed by flow cytometry using anti-CD11c-FITC antibody with appropriate isotope controls.
Effects of OPLS on cytokine profile of BMDCs in vitro: The effects of OPLS on cytokine secretion by dendritic cells were investigated. On day 9 BMDCs, generated as above, were treated with FVIII as an antigen in the presence of increasing dose of OPLS. Changes in production of pro-inflammatory cytokines TNF-α and IL12p70 as well as the regulatory cytokine TGF-β were monitored as a function of dose. BMDCs were exposed to 1 μg/ml FVIII with increasing dose of OPLS (0, 0.5, 1, 10, 25, 50 mM). 1 M stock of OPLS was prepared by adding the appropriate amount of OPLS directly to RPMI media, and pH was adjusted using sterile 3N and 1N NaOH. […] TGF-β, TNF-α and IL-12p70 concentrations were determined using standard ELISA (R&D System Inc. Minneapolis, Minn., USA or Invitrogen […], Calif.).

N[C@@H](COP(=O)(O)O)C(=O)O [OPLS, O-Phospho-L-Serine]
Anti-GAA peptide antibody titers vs GAA peptide alone [1]: lower | Anti-Humira antibody titers vs Humira alone [2]: lower | Binding affinity of GAA for OPLS [3]: lowest affinity | TNF-α production by BMDC [4]: substantial reduction
